Data on two compounds can be found in US6500819B2, “Bicyclolactam compounds, use thereof and intermediates for preparing thereof” (Taiho Pharmaceutical Company Limited, priority 1994, dated 2002).

As usually defined, the ED50 is the midpoint of the dose-response relation.

Data set [1] concerns Wistar rats. The experiment in a line: Anticonflict test (first part, Test Example 1). Format: in vivo. The note with it: for Frequency of water drinking behavior: 1 h before test, value relative to control = 100; for Anxiolytic effect in the anticonflict test (in words): oral, compounds at doses of 0.001 to 1.0 mg/kg. How it is done:
(§1) Wistar rats (males weighing 140 to 160 g) were used for experiment in groups of 11 to 14.
The test compound, diazepam or buspirone was suspended in a 0.5 % sodiumn carboxymethyl cellulose solution, and the suspension was orally given to the animal in a volume of 5 mnl/kg one hour before the start of experiment.
With reference to a method described in “Process in Anxiolytics and Antidepresants,” ediled by Showa Ueki and Tatsuo Furukawa, Ishiyaku Shuppansha, 56-59 (1981) , the agents were tested using experimental boxes having a grid floor and a metal drinking tube in the floor. No water was supplied to the rats for 48 hours before the experiment. Upon lapse of first 24 hours, each group of rats were placed into the experimental box, permitted access to water for 30 seconds and caused to recognize the metal drinking tube. Upon lapse of further 24 hours with access to water prevented, the rats were placed into the box again and permitted access to water on condition that an electric current was passed between the metal drinking tube and the grid to give an electroshock for every 20 times of water drinking behavior to measure the frequency of water drinking behavior for 3 minutes.
The frequency is expessed by a value relative to the frequency of the control which is taken as 100.

Data set [2] concerns Wistar rats. The experiment in a line: Elevated plus maze test. The class given is in vivo. The settings on record: 1 h before test, relative to control = 100. How it is done:
Wistar rats (males weighing 170 to 220 g) were used for experiment in groups of 4 to 9.
The test compound, diazepam or buspirone was suspended in a 0.5 %) sodium carboxymethyl cellulose solution, and the suspension was orally given to the animal in a volume of 5 ml/kg one hour before the start of experiment.
The test was conducted using an experimental device, Model BTA-2, Behavior Analysis System (product of Muromachi Kikai Co., Ltd.) with reference to a method described in Psychopharmacology, 99, 48˜53(1989). […] Each group of rats orally given the test drug were placed in the center square, and the behavior of the animals was recorded for 5 minutes using a behavior analyzer. The ratio of the number of entries into the open arm to the number of entries into all the arms was determined for evaluating the anxiolytic effect.
The ratio of entries into the open arm is expressed by a value relative to the ratio attained by the control which is taken as 100.

Data set [3] in a line: Muscle relaxant effect (traction method), first part. The settings on record: male, ddY, mouse, in vivo, po. How it is done:
(§2) Muscle Relaxant Effect (Traction Method)
(§3) Compound 3, Compound 13, diazepam or buspirone was suspended in a 0.5 % sodium carboxymethyl cellulose solution, and the suspension was orally administered to 3- to 4-week-old male ddY mice (in groups of 5) in a volume of 10 ml/kg one hour before the start of experiment.
(§4) With reference to a method described in Japan. J. Pharmacol., 49. 337˜349(1989), the foreleg of the mouse was hung on a horizontal wire, having a diameter of 1.2 mm and fixed at a level of 30 cm, three times consecutively. […] Thus, ED5 0 was determined for evaluation. […] Diazepam and buspirone were 2.2 mg/kg and 427.8 mg/kg, respectively, in ED5 0.

Data set [4] in a line: Sedative effect (spontaneous locomotor activity), first part. The settings on record: male, ddY, mouse, in vivo, po. As for the experimental part:
(§5) Sedative Effect (Spontaneous Locomotor Activity)
as §3
(§6) The test was conducted with reference to a method described in “Evaluation of Medicinal Efficacies (1), Pharmacological Test Method (1), Basic Lectures on Development of Pharmaceuticals,” 50˜54(1971). More specifically, the group of mice were given the test drug and thereafter measured the amount of spontaneous locomotor activity for 10 minutes per mouse rising Animex MK-110 (product of Muromachi Kikai Co., Ltd.).

The nature of data set [5]: Effect on central nervous system depressant: pentobarbital anesthetic method. The note with it: male, ddY, mouse, in vivo. How it is done:
(§7) Effect On Central Nervous System Depressant
(§8) a. Pentobarbital Anesthetic Method
(§9) Compound 3, Compound 13, diazepam or buspirone was suspended in a 0.5 % sodium carboxymethyl cellulose solution, and the suspension was orally administered to 3- to 4-week-old male ddY mice (in groups of 5 to 10) in a volume of 10 ml/kg one hour before the start of experiment.
(§10) The test was conducted with reference to a method described in “Evaluation of Medicinal Efficacies (1), Pharmacological Test Method (1), Basic lectures on Development of Pharmaceuticals,” 144˜145(1971). More specifically, the group of mice were intraperitoneally given pentobarbital at a dose of 40 mg/kg and checked for sleeping time.

Data set [6] is described as follows: Effect on central nervous system depressant: ethanol enhancing method, first part. The note with it: male, ddY, mouse, in vivo. How it is done:
as §7
(§11) b. Ethanol Enhancing Method
(§12) Compound 3, Compound 13, diazepam or buspirone was suspended in a 0.5 % sodium carboxymethyl cellulose solution, and the suspension was orally administered to 3- to 4-week-old male ddY mice (in groups of 6) in a volume of 10 ml/kg one hour before the start of experiment.
(§13) The test was conducted with reference to a method described in Japan. J. Pharmacol., 49, 337˜349(1989). More specifically, the group of mice were intraperitoneally given 25 % ethanol at a dose of 20 ml/kg and checked for the time interval between loss and recovery of the righting reflex.

Data set [7] has as its system Wistar rats. The experiment in a line: Anticonflict test (second part, relieving rate of anxiety). The settings on record: oral, dose of 1.0 mg/kg. The class given is in vivo. How it is done: as §1
No water was supplied to the rats for 48 hours before the experiment. Upon lapse of first 24 hours, each group of rats were placed into the experimental box, permitted access to water for 30 seconds and caused to recognize the metal drinking tube. Upon lapse of further 24 hours with access to water prevented, the rats were placed into the box again and permitted access to water on condition that an electric current was passed between the metal drinking tube and the grid to give an electroshock for every 20 times of water drinking behavior to measure the frequency of water drinking behavior for 3 minutes. Anxiolytic effect was evaluated as relieving rate of anxiety as calculated by the following equation.

A short description of data set [8]: Muscle relaxant effect (traction method), second part. The settings on record: male, ddY, mouse, in vivo, po. As for the experimental part:
as §2
(§14) Compound 1′a-1, the comparison compound, diazepam or buspirone was suspended in a 0.5% sodium carboxymethyl cellulose solution, and the suspension was orally administered to 3- to 4-week-old male ddY mice (in groups of 5) in a volume of 10 ml/kg one hour before the start of experiment.
as §4

Data set [9] deals with ddY mice. The experiment in a line: Sedative effect (spontaneous locomotor activity), second part. The note with it: oral, mice, 1 h before test. As for the experimental part: Sedative Effect (Spontaneous locomotor activity)
as §14
The test was conducted with reference to a method described in “Evaluation of Medicinal Efficacies (1), Pharmacological Test Method (I), Basic Lectures on Development of Pharmaceuticals,” 50˜54(1971). More specifically, the group of mice were given the test drug and thereafter measured the amount of spontaneous locomotor activity for 10 minutes per mouse using Animex MK-110 (Muromachi Kikai Co., Ltd.).

A short description of data set [10]: Effect on central nervous system depressant (ethanol enhancing method), second part. The note with it: male, ddY, mouse, in vivo. How it is done: Effect on central nervous system depressant (Ethanol enhancing method)
Compound 1′a-1, the comparison compound, diazepam or buspirone was suspended in a 0.5% sodium carboxymethyl cellulose solution, and the suspension was orally administered to 3- to 4-week-old male ddY mice (in groups of 6) in a volume of 10 ml/kg one hour before the start of experiment.
The test was conducted with reference to a method described in Japan. J. Pharmacol., 49, 337˜349(1989). More specifically, the group of mice were intraperitoneally given 25% ethanol at a dose of 20 ml/kg and checked for the time interval between loss and recovery of the righting reflex.

Data set [11] has as its system ddY mice. The experiment in a line: Anticonvulsant effect (pentylenetetrazol-induced convulsion method), second part. The class given is in vivo. The note with it: Mus musculus, 1 h, read-out: ED50, anticonvulsant effect (no death within 60 minutes). As for the experimental part: Anticonvulsant Effect (Pentylenetetrazol-induced Convulsion Method)
Compound 1′a-1, the comparison compound, diazepam or j buspirone was suspended, in a 0.5% sodium carboxymethyl cellulose solution, and the suspension was orally administered to 3- to 4-week-old maple ddY mice (in groups of 6) in a volume of 10 ml/kg one hour before the start of experiment.
The test was conducted with reference to a method described in “Evaluation of Medicinal Efficacies (1), Pharmacological Test Method (I), Basic Lectures on Development of Pharmaceuticals,” 167˜172(1971).

Data set [12] relates to ddY mice. The data set can be described thus: Muscle relaxant effect (traction method), first part. The settings on record: mouse, in vivo, po, 300 mg/kg. As for the experimental part:
as §2, §3, §4

Data set [13] has as its system ddY mice. The experiment in a line: Sedative effect (spontaneous locomotor activity), first part. The note with it: mouse, in vivo, po, 300 mg/kg. As for the experimental part: as §5, §3, §6
Data set [14] has as its system ddY mice. The experiment in a line: Effect on central nervous system depressant: pentobarbital anesthetic method. The note with it: oral, mice; pentobarbital 40 mg/kg i.p. As for the experimental part:
as §7, §8, §9, §10

The test system of data set [15] is ddY mice. The experiment in a line: Effect on central nervous system depressant: ethanol enhancing method, first part. The note with it: mouse, in vivo, po, 300 mg/kg. How it is done: as §7, §11, §12, §13
Data set [16] relates to ddY mice. The experiment in a line: Anticonvulsant effect (pentylenetetrazol-induced convulsion method), first part. Format: in vivo. The settings on record: oral, dose of 300 mg/kg. As for the experimental part:
Anticonvulsant Effect (Pentylenetetrazol-Induced Convulsion Method)
as §12
The test was conducted with reference to a method described in “Evaluation of Medicinal Efficacies (1), Pharmacological Test Method (1), Basic lectures on Development of Pharmaceuticals,” 167˜172(1971).

The subject of data set [17] is ddY mice. The data set can be described thus: Acute toxicity test (LD50), first part. Format: in vivo. The note with it: oral, male ddY mice, observed for 3 days.

On to `CN1C(=O)CN=C(c2ccccc2)c2cc(Cl)ccc21` [Diazepam, diazepam, reference compound], for which the Frequency of water drinking behavior in data set [1] (dose 1.0 mg/kg oral) was 96%. Besides, the “Anxiolytic effect in the anticonflict test (in words)” value in data set [1] and in data set [7] was “almost ineffective” throughout. In addition, the results for the “Ratio of entries into open arm” value in data set [2] (dose 1.0 oral) and in data set [2] (dose 10.0 oral) were 103 and 144, respectively. Besides, the ED50 at 1 h stood at 2.2 mg/kg in data set [3]; 1.7 mg/kg in data set [4]; 0.53 mg/kg in [5]; 0.48 mg/kg in data set [6]; 2.2 mg/kg in data set [8]; 0.48 mg/kg in [10]. Moreover, in [9], the “ED6O, sedative effect (spontaneous locomotor activity up to 50% of control)” value is recorded as 1.7 mg/kg. The ED50 in [11] is 0.35 mg/kg.
`COc1ccc(C(=O)N2C(=O)CCC3C(O)CCC32)cc1` (stereo not drawn) [Compound 13, γ-6,c-7-Hydroxy-2-(4-methoxybenzoyl)-2-azabicyclo-[4.3.0]nonan-3-one]: the Frequency of water drinking behavior came to 130% in [1] (dose 0.001 mg/kg oral), 183% in data set [1] (dose 0.01 mg/kg oral), 177% in [1] (dose 0.1 mg/kg oral) and 169% in data set [1] (dose 1.0 mg/kg oral). The “Anxiolytic effect in the anticonflict test (in words)” value in [1] is “increase in the frequency of water drinking behavior”. For the same compound, the “Muscle relaxant effect (in words)” value in [12] is “no muscle relaxant effect”. For the same compound, in [13], the “Sedative effect (in words)” value is “no sedative effect”. In [14], the “ED50, pentobarbital sleeping time in excess of twice control” value was determined as 224.5 mg/kg. Further, the “Ethanol enhancing effect (in words)” value in [15] is listed as “no ethanol enhancing effect”. Moreover, the “Anticonvulsant effect (in words)” value in data set [16] is given as “no anticonvtilsant effect”. Moreover, the “Acute Toxicity LD50” value in data set [17] is reported as 3000< mg/kg.
